System: Patient-derived fibroblasts, cells from HD patient (ID 090401)
Assay: Reversal of the HD-signature (mitochondrial behaviour variables) by dynamic imaging of patient-derived fibroblasts
Assay type: cell-based, human
Details: for recovery (weighted overall rescue of the diseased phenotype, discriminant equation on 7 HD-signature variables): 30 min incubation, 0% = diseased status, 100% = healthy status
Protocol: Fibroblasts were labelled with MitoTracker green, a cell-permeant mitochondrial dye not sensitive to mitochondrial membrane potential, for 30 minutes. Images were recorded from an epifluorescence microscope continuously for 6 minutes. Cells were kept at 37° C. for the duration of the image capture. For each experimental condition, 3 to 15 cells were recorded per well from three independent plates, i.e. up to 6000 individual mitochondria. The maximum duration for data acquisition was 30 minutes (i.e. five cells observed during 6 min). Images were captured with a Zeiss Axioplan II microscope along three dimensions in space and in time.
Patient-derived fibroblasts were cultured in DMEM containing 15% fetal calf serum. and 0.5% DMSO, a concentration known to be inert on the mitochondrial behaviour.
Cells were incubated with different doses of resveratrol or cyclosporine A (CSA) diluted in DMSO or with the vehicle only (DMSO) for 30 minutes and observed through time-lapse video-microscopy for another 30 minutes during dynamic image capture.
Resveratrol and CSA were tested at 4 doses spanning […] (10, 1, 0.1 and 0.05 μM).
The negative control was cells from HD patient (ID 090401) with the vehicle only and the positive control was cells from healthy patient (ID 071201) with the vehicle only.
The raw data obtained for each mitochondrion were expressed as a ratio (%) according to the following formula: DATA=(NC−Var)*100/(NC−PC) (NC=average value of the negative control; PC=average value of the positive control; Var=value of the variable).
Effects are expressed as a percent of control values as defined above, i.e. % of phenotypic rescue. 0% represents the diseased status while 100% represents the healthy status.
To express the weighted effect of the variables on the overall rescue, a discriminant equation was applied.

In the case of `Oc1ccc(C=Cc2cc(O)cc(O)c2)cc1` [Resveratrol], the “recovery (weighted overall rescue of the diseased phenotype, discriminant equation on 7 HD-signature variables)” value (0.05 μM) is reported as “detrimental effect with a mild worsening of the diseased status”, the “recovery (weighted overall rescue of the diseased phenotype, discriminant equation on 7 HD-signature variables)” value (10 μM) is reported as “exceeds the healthy status” and the “overall effect / activity profile over the dose range (weighted dose-response on disease-modification)” value (doses 10, 1, 0.1 and 0.05 μM) is reported as “disease-modifying capabilities and rescue of the disease status except at low dose”.

Source: patent publication US20160223526A1, “METHOD OF SCREENING FOR COMPOUNDS USEFUL IN THE TREATMENT OF HUNTINGTON DISEASE” (INNOVATIVE CONCEPTS IN DRUG DEVELOPMENT, priority 2013, published 2016)
